According to US20250101062A1, “ANTIMICROBIAL PEPTIDES” (Board of Regents of the University of Nebraska, priority 2023, published 2025):
Values after ≈ are worked out from the molar mass of the structure shown. Where two headings read alike, the source gives them in different places. Where a SMILES comes first, the peptide text is derived from it.

How the values were obtained:
S. epidermidis 1457 = test: microbe, parasite or virus in culture; type: cell-based, Staphylococcus epidermidis; conditions: read-out: Antimicrobial activity (MIC) S. epidermidis 1457
Description: (§1) The following resistant bacterial clinical strains were used in this study: S. aureus USA300 LAC, S. epidermidis 1457, E. coli E423-17, P. aeruginosa E411-17, K. pneumoniae E406-17, and A. baumannii B28-16. While the S. aureus USA300 strain is methicillin-resistant, most of the Gram-negative bacteria contain extended-spectrum beta-lactamase and are resistant to beta-lactam antibiotics. Peptide activity against bacteria was tested using an established lab protocol (Mishra, et al. (2017) Acta Biomater., 49:316-328). In brief, a peptide concentration gradient with twofold dilution was made in the 96-well polystyrene microplate at 10 μL per well. Bacteria were grown to the exponential phase (i.e., optical density at 600 nm≈0.5), diluted to ˜10^5 CFU/mL in different percentages of MHB, TSB, or LB, and partitioned into the 96-well microplate at 90 μL per well. […] They were diluted with autoclaved distilled water to obtain different percentages. The microplates were incubated at 37° C. overnight and read on a ChroMate™ 4300 microplate reader at 600 nm (GMI, Ramsey, MN). The peptide concentration in the wells without bacterial growth is the MIC. As is the convention, MIC values were represented as ranges.
(§2) Peptide activity against bacteria were tested using the CLSI standard procedure with minor modifications (Clinical and Laboratory Standards Institute (2018) Performance standards for antimicrobial susceptibility testing, 9th ed.; Mishra, et al. (2019) Proc. Natl. Acad. Sci., 116(27):13517-13522). In brief, a peptide concentration gradient with twofold dilution was made in the 96-well polystyrene microplate at 10 μL per well. Bacteria were grown to the exponential phase (i.e., optical density at 600 nm≈0.5), diluted to ˜10^5 CFU/mL in MHB, and partitioned into the 96-well microplate at 90 μL per well. The microplates were incubated at 37° C. overnight and read on a ChroMate® 4300 Microplate Reader at 600 nm (GMI, Ramsey, MN). The peptide concentration in the wells without bacterial growth is the minimal inhibitory concentration (MIC). As the convention, MIC values were represented as ranges.

A. baumannii B28-16 = type: cell-based, Acinetobacter baumannii; conditions: B28-16
Description: as §1, §2

[1] = system: S. aureus USA300 LAC biofilms; test: Disruption of preformed biofilms in vitro (XTT); type: cell-based, Staphylococcus aureus; conditions: 24 h preformed biofilm
Description: (§3) Effects of Peptides on Established Biofilms in Vitro. Bacteria (S. aureus USA300 LAC and E. coli E423-17) were grown in rich TSB media overnight. A second inoculation was made the next day to reach an exponential phase (OD600˜0.4). Microtiter plates (96 wells, Corning Costar Cat no. 3595), after aliquoting with 180 μL of the culture to each well, were incubated at 37° C. for 24 hours to form biofilms in rich TSB. Media were aspirated post incubation, and the attached biofilms were washed with 1×PBS to remove the planktonic bacteria. […] Biofilms treated with water served as the positive control, while media without bacterial inoculation served as the negative control. Live cells in the biofilms were quantitated using XTT as described above. Absorbance was read at 450 nm (only media with XTT containing wells served as the blank) using a ChroMate™ microtiter plate reader. Percentage biofilm growth for the peptide was plotted by assuming 100% biofilm growth in bacterial control alone. The data were represented as mean±SD; plots were generated using GraphPad prism 7, where * indicates p<0.05, **p<0.01, and ***P<0.001, and ****p<0.0001 (one-way analyses of variance).
LL-37 is known to inhibit bacterial biofilms (Overhage, et al. (2008) Infect. Immun., 76:4176-4182). However, it was unable to disrupt preformed MRSA biofilms in rich media (Mishra, et al. (2016) ACS Med. Chem. Lett., 7:117-121). Next, it was determined whether the diluted MHB medium could be useful to detect biofilm-disrupting activity for LL-37 against MRSA. An established procedure (Mishra, et al. (2016) ACS Med. Chem. Lett., 7:117-121; Duplantier, et al. (2013) Front. Immunol., 4:143) was used wherein biofilms were formed and washed as usual to remove planktonic cells. The biofilms were then treated with peptides in 12.5% MHB for 24 hours. Finally, live cells were quantified with XTT (ATCC). FIG. 2 compares the levels of live cells of MRSA in the preformed biofilms after 24 hour treatment. […] Of note is a similar pattern for both peptides in 12.5% MHB treated at various concentrations.
Bacteria (S. aureus USA300 LAC or P. aeruginosa E411-17) were grown up in TSB media overnight. A second inoculation was made the next day to reach an exponential phase (OD600˜0.4). Microtiter plates (96 wells, Corning Costar Cat No. 3595), after aliquoting with 180 μL of the culture to each well, were incubated at 37° C. for 24 hours to form biofilms in rich TSB. Media were aspirated post incubation and the attached biofilms were washed with 1×PBS to remove the planktonic bacteria. […] Biofilms treated with water served as the positive control while media without bacterial inoculation served as the negative control. Live cells in the biofilms were quantitated using the XTT as described above. Absorbance was read at 450 nm (only media with XTT containing wells served as the blank) using a ChroMate® microtiter plate reader. Percentage biofilm growth (the plot legend is antibiofilm activity) for the peptides was plotted by assuming 100% biofilm growth in bacterial control alone. The data were represented as mean±SD, plots were generated using GraphPad prism 7, where * indicates p<0.05, ** p<0.01, and ***P<0.001, and ****p<0.0001 (one-way analyses of variance).

E. coli E423-17 = type: cell-based, Escherichia coli; conditions: E423-17
Description: as §1
(§4) For pH effects on peptide activity, the pH of the medium was adjusted to a targeted pH for the autoclave and then remeasured at room temperature. For salt and serum effects on peptide activity, stock NaCl solution or human serum was added to the media.
as §2
(§5) For pH effects on peptide activity, the pH of the medium was adjusted to a targeted pH for autoclave and then remeasured at room temperature. For salt and serum effects on peptide activity, stock NaCl solution or human serum were added to the media.

E. coli E423-17 biofilms = test: Disruption of preformed biofilms in vitro (XTT); type: cell-based, Escherichia coli; conditions: 24 h preformed biofilm
Description: as §3

P. aeruginosa E411-17 = test: microbe, parasite or virus in culture; type: cell-based, Pseudomonas aeruginosa; conditions: E411-17
Description: as §1, §4, §2, §5

S. aureus USA300 LAC = test: microbe, parasite or virus in culture; type: cell-based, Staphylococcus aureus
Description: as §1, §4, §2, §5

MRSA USA300 = test: microbe, parasite or virus in culture; type: cell-based, Staphylococcus aureus
Description: The experiment was conducted as described (Lakshmaiah et al. (2020) Proc. Natl. Acad. Sci., 117:19446-19454). Briefly, MRSA USA300 was grown to the exponential phase in MHB and diluted to OD600 0.001 (˜10^5 CFU/mL). Aliquots of 90 μL were added to a 96-well polystyrene microplate (Costar, Corning, NY) containing 10 μL of serially diluted LL-37mini, nafcillin, or daptomycin. After overnight incubation at 37° C., the plates were read at 600 nm using a ChroMate™ microplate reader (GMI, Ramsey, MN). Untreated bacterial culture and medium were included as untreated control and blank, respectively. The MIC is the lowest peptide concentration that inhibited the bacterial growth. The wells with sub-MIC levels of the peptides that retained growth approximately half the growth of the control wells were reinoculated in fresh MHB with sub-MIC concertation of peptides or antibiotics to attain exponential phase for MIC determination. In total, 17 passages of the bacterial cultures were conducted. A rapid increase in MIC is an indication of antibiotic resistance.

[2] = Effect of MHB dilution on antibacterial activity of a panel of antibiotics; type: cell-based; conditions: MHB from 100 to 12.5%
Description: FIGS. 2A-2D show biofilm disruption activity of human LL-37 (FIGS. 2A and 2B) and 17BIPHE2 (FIGS. 2C and 2D) against the 24 hour preformed biofilms of S. aureus USA300 LAC in different MHB media: 12.5% MHB (FIGS. 2A and 2C) and 100% MHB (FIGS. 2B and 2D). FIGS. 2E-2H show the treatment outcome of LL-37 (FIGS. 2E and 2F) and 17BIPHE2 (FIGS. 2G and 2H) against the 24-hour preformed biofilms of E. coli E423-17 in different MHB media: 12.5% MHB (FIGS. 2E and 2G) and 100% MHB (FIGS. 2F and 2H). […] Growth curves of S. aureus USA 300 LAC (FIGS. 2J-2K) and P. aeruginosa 152 (FIGS. 2L-2M) in 12.5%, 25%, 50% and 100% MHB or TSB medium (curves from bottom to top).
The effects of MHB dilution on the antimicrobial activity of a panel of antibiotics was also compared (FIG. 2I).

CC(C)C[C@H](NC(=O)[C@H](CC(N)=O)NC(=O)[C@H](CCCNC(=N)N)NC(=O)[C@@H](CC(C)C)NC(=O)[C@H](Cc1ccc(-c2ccccc2)cc1)NC(=O)[C@H](CC(=O)O)NC(=O)[C@H](CCCCN)NC(=O)[C@@H](CC(C)C)NC(=O)[C@H](CCCNC(=N)N)NC(=O)[C@H](CCC(N)=O)NC(=O)[C@@H](NC(=O)[C@@H](CC(C)C)NC(=O)[C@H](CCCNC(=N)N)NC(=O)[C@H](CCCCN)NC(=O)[C@H](Cc1ccc(-c2ccccc2)cc1)NC(=O)CN)C(C)C)C(=O)N[C@H](C(N)=O)C(C)C [17BIPHE2] (HELM PEPTIDE1{G.[O=C([C@H](Cc1ccc(-c2ccccc2)cc1)N[*:1])[*:2]].K.R.[dL].V.Q.R.[dL].K.D.[O=C([C@H](Cc1ccc(-c2ccccc2)cc1)N[*:1])[*:2]].[dL].R.N.L.V.[am]}$$$$V2.0; N-terminus and C-terminus assumed)
MIC (S. epidermidis 1457): 8 µM (≈ 18 µg/mL)
Antimicrobial activity (MIC) A. baumannii B28-16 (A. baumannii B28-16): 4 µM
peptide concentration showing biofilm disruption ([1]; 12.5% MHB): 16 µM
peptide concentration at which it started to work on biofilms ([1]; 100% MHB): 8 µM
live bacteria remained in the biofilms ([1]; 100% MHB, treated at 16 μM for 24 h): ~30%
Antimicrobial activity (MIC) (E. coli E423-17): <2 µM
Antimicrobial activity (MIC) E. coli E423-17 (E. coli E423-17): 4 µM
effect on biofilms (E. coli E423-17 biofilms; 12.5% MHB): dose-dependent antibiofilm effect
effect on biofilms (E. coli E423-17 biofilms; 100% MHB): subtle effect
Antimicrobial activity (MIC) P. aeruginosa E411-17 (P. aeruginosa E411-17): 4 µM
MIC (S. aureus USA300 LAC; USA300): 2 to 4 µM
MIC (S. aureus USA300 LAC; USA300, read-out: Antimicrobial activity (MIC) S. aureus USA300): 4 µM (≈ 9.02 µg/mL)

CCOc1ccc2ccccc2c1C(=O)N[C@@H]1C(=O)N2[C@@H]1SC(C)(C)[C@@H]2C(=O)O [Nafcillin]
increase of MIC (MRSA USA300; 17 passages at sub-MIC): 32 fold
MIC (MRSA USA300; Staphylococcus aureus, read-out: MIC after multiple passages): 128 µM (≈ 53.1 µg/mL)
change in MIC with dilution of MHB [2]: small changes in MIC values
MIC (S. aureus USA300 LAC; Staphylococcus aureus, MRSA / USA300, MRSA in MHB, 20% serum, read-out: Antimicrobial activity (MIC)): 16 to 32 µM (≈ 6.63 to 13.3 µg/mL)
MIC (S. aureus USA300 LAC; Staphylococcus aureus, MRSA / USA300, pH 6.3, MRSA in MHB, pH 6.3, read-out: Antimicrobial activity (MIC)): 16 µM (≈ 6.63 µg/mL)
MIC (S. aureus USA300 LAC; Staphylococcus aureus, MRSA / USA300, pH 7.2, MRSA in MHB, pH 7.2, read-out: Antimicrobial activity (MIC)): 4 to 8 µM (≈ 1.66 to 3.32 µg/mL)

CN[C@H](CC(C)C)C(=O)N[C@H]1C(=O)N[C@@H](CC(N)=O)C(=O)N[C@H]2C(=O)N[C@H]3C(=O)N[C@H](C(=O)N[C@H](C(=O)O)c4cc(O)cc(O)c4-c4cc3ccc4O)[C@H](O)c3ccc(c(Cl)c3)Oc3cc2cc(c3O[C@@H]2O[C@H](CO)[C@@H](O)[C@H](O)[C@H]2O[C@H]2C[C@](C)(N)[C@H](O)[C@H](C)O2)Oc2ccc(cc2Cl)[C@H]1O [Vancomycin]
change in MIC with dilution of MHB [2]: essentially no changes
MIC (S. aureus USA300 LAC; Staphylococcus aureus, MRSA / USA300, pH 6.3, read-out: Antimicrobial activity (MIC), MRSA in MHB, pH 6.3): 0.5 µM (≈ 0.725 µg/mL)
MIC (S. aureus USA300 LAC; Staphylococcus aureus, MRSA / USA300, pH 7.2, read-out: Antimicrobial activity (MIC), MRSA in MHB, pH 7.2): 0.5 µM (≈ 0.725 µg/mL)
MIC (S. aureus USA300 LAC; Staphylococcus aureus, MRSA / USA300, read-out: Antimicrobial activity (MIC), MRSA in MHB, 10% serum): 0.5 µM (≈ 0.725 µg/mL)
MIC (S. aureus USA300 LAC; Staphylococcus aureus, MRSA / USA300, read-out: Antimicrobial activity (MIC), MRSA in MHB, 20% serum): 0.5 to 1 µM (≈ 0.725 to 1.45 µg/mL)
MIC (S. aureus USA300 LAC; Staphylococcus aureus, MRSA / USA300, read-out: Antimicrobial activity (MIC), MRSA in MHB, NaCl (150 mM)): 0.5 to 1 µM (≈ 0.725 to 1.45 µg/mL)
